Data as given in patent US5401733A, “Stable and active metabolites of 1,25-dihydroxy-16-ene-cholecalciferol” (Hoffmann-La Roche Inc., priority 1993, dated 1995).

Experiments:
HL-60 cells = test: Differentiation of HL-60 cells (NBT reduction), 4 days; assay type: cell-based, human
Protocol: Effect of 1,25(OH)2 -16-ene-24-oxo-D3 on the Morphological Differentiation of HL-60 Cells
Tissue culture medium used was RPMI-1640 (Gibco) supplemented with glutamine, antibiotics and 20% fetal bovine serum.
1,25(OH)2 -16-ene-D3 and 1,25(OH)2 -16-ene-24-oxo-D3 were dissolved in sufficient ethanol to yield stock solutions of 1 mM. Reduced lighting was used when working with the compounds and the stock solutions were stored in the dark at -20 C. in an argon atmosphere. The stock solutions were added to flasks, which were supplemented with sufficient ethanol to achieve the final concentration of 0.1%.
A HL-60 tumor cell line was originally derived from a patient with promyelocytic leukemia and was obtained from the American Type Culture Collection (ATCC #CCL240). The cells were maintained in liquid cultures by serial passage twice weekly in the tissue culture medium. For each experimental point, cells were grown in replicate flasks. The cells were seeded at a rate of 10^6 cells per 25 cm^2 flask and grown in the presence of the compounds for a total of 4 days. Ethanol, used as the vehicle, was kept constant in all dilutions in each experiment and had no effect on the cell differentiation at the concentrations used […]. After 4 days of incubation at 37° C., cultures were evaluated for cell differentiation.
Quantitation of differentiated cells was done by the biochemical method of nitroblue tetrazolium reduction (NBT) reduction. A 1 ml aliquot of cell suspension was removed from each flask and centrifuged for 10 minutes, and resuspended in about 200 μl of a work solution. The work solution contained 100 ng of tetradecanoyl phorbol acetate per ml of NBT and was kept in a covered vial on ice. The NBT was prepared fresh on the day of enumeration to 1 mg/ml in growth medium. The cells were incubated in a 37° C. water bath for 30 minutes. An aliquot was placed into a hemocytometer and the total number of blue-black cells per approximately 200 cells was determined. The percentage of differentiated cells was then calculated.
The results are also shown as the concentration of compound which induced differentiation of 50% of the cells (ED50).

hydroxylase enzymes = test: Metabolism in perfused rat kidneys; assay type: in vitro ADME; details: rat kidney perfusion
Protocol: The compounds of formulas I and II were prepared by perfusing 1,25(OH)2 -16-ene-D3 in rat kidneys, extracting the perfusate and isolating the compounds of formulas I and II.
Crystalline 1,25(OH)2 -16-ene-D3 was synthesized as described in U.S. Pat. No. 5,087,619, which is herein incorporated by reference to the extent necessary to enable one of skill in the art to make this invention. Rat kidneys were perfused with the 1,25(OH)2 -16-ene-D3 as described in Am. J. Physiol. 1982, 243 E265-271 and in Biochemistry 1987, 26, 324-331. Cold 1,25(OH)2 -16-ene-D3 (400 nmoles) was introduced into 100 mL of perfusate and the kidney perfusion was continued for 8 hours. Lipid extraction of the final kidney perfusate was performed according to the procedure described in Can. J. Biochem. Physiol. 1959, 37, 911-917. Half of the bulk lipid extract from the final perfusate of about 100 mL was then subjected directly to high pressure liquid chromatography (HPLC) performed with a Waters Model 600 equipped with a Model 990 photo diode array detector (Waters Associates, Milford, MA). HPLC analysis was performed on the lipid extract obtained from 50 mL of perfusate under the following conditions: Zorbax-SIL column (25 cm×4.6 mm); Hexane: 2-propanol (90:10), Flow rate: 2 mL/minutes. A known amount of 25(S),26(OH)2 -D3 was added to the perfusate at the time of lipid extraction to assess extraction of vitamin D metabolites in general. Fractions of each individual metabolite from the first HPLC run was pooled and subjected to a second HPLC run using the same Zorbax-SIL column eluted with methylene chloride:2-propanol […]. Each metablite obtained from the second HPLC run was chromatographed twice using the first HPLC system. At this time, the purity of each metabolite was adequate for its structure identification process. A control perfusion was performed with cold 1,25(OH)2 -D3 in a similar fashion and the lipid extract of the final perfusate was analyzed using the same HPLC systems as above.

human keratinocytes = test: Keratinocyte proliferation, assay 2 (KGM without calcium supplementation, 7 days); assay type: cell-based; details: assays 1 and 2 not distinguished
Protocol: Quantitation of Morphological Changes During Keratinocyte Proliferation Materials and Methods
Human neonatal foreskins were collected by circumcision and placed into tubes containing Dulbecco's Modified Eagle's Medium (DMEM) with 10% serum. On arrival at the laboratory, they were mechanically trimmed of excess dermis, and treated with a solution of trypsin/EDTA (0.05%/0.02%) at 4° C. overnight. The epidermis was stripped from the dermis, agitated in buffered saline containing soybean trypsin inhibitor to remove basal keratinocytes and the stratum cornea layer was removed. The separated cells were centrifuged, resuspended in the above media, counted, and the cells plated onto plastic culture dishes or plates at a density of 25,000 cells/cm^2 in keratinocyte growth media (KGM®-modified MCDB 153, Clonetics, Inc., Catalog #CC3001) according to protocols developed by Boyce and Ham (In Vitro Models for Cancer Research III, 246-274, 1986) for MCDB 153 media. The cultures were incubated in humidified chambers with 5% CO2 at 37° C. The cultures were refed with fresh media two to three times per week. Prior to reaching confluency the cells were replated (passage one) at 25,000 cells/well on 6-well cluster plates (Costar catalog #3506) in KGM.
1 milligram quantities were received in amber glass vials, and stored at -20° C. Sufficient 100% ethanol was added directly to the vials to obtain a millimolar solution that was subsequently aliquoted into small amber vials, overlayed with argon gas and stored at […] Each stock solution was thawed once, used and discarded. Aliquots from the stock solutions were diluted directly into medium and then serially diluted from micromolar to 10^-12 M concentrations. Dilutions from 10^-8 M to 10^-12 M had ethanol added for a final concentration of 0.1%. Stock solutions were used within one month. Control cultures were treated with 0.1% ethanol.
Approximately 24 hours after passage one, the cells were refed with fresh KGM supplemented to 1.5 mM CaCl2 (assay 1) containing the test compound. In a second assay (assay 2), the cells were grown in KGM without calcium supplementation to stimulate more proliferation and grown for 7 days instead of 5 days. Compounds were typically tested at 4 concentrations in triplicate wells. At the termination of the experiment, prior to the cultures reaching confluency, the cells were enumerated as follows. Dishes were rinsed with phosphate buffered saline, and then incubated with trysin/EDTA solution for 15 minutes. Cells were suspended, an aliquot placed into isotonic buffered saline and counted on an electronic particle counter (Coulter Counter). The counter was periodically calibrated for the correct size of keratinocytes. Each well was counted in triplicate. The number of cells per dish were calculated according to dilution factors used and results shown below in Table 3 are presented as percent inhibition obtained in control cultures.

C=C1/C(=C\C=C2/CCC[C@]3(C)C([C@H](C)CCC(O)C(C)(C)O)=CC[C@@H]23)C[C@@H](O)C[C@@H]1O (stereo partly drawn) [1,24,25(OH)3-16-ene-D3, 1,24,25-trihydroxy-16-ene-cholecalciferol]
differentiation of HL-60 / human promyelocytic cells (in words) (HL-60 cells): stimulate differentiation of HL-60 cells | resistance to further hydroxylation (in words) (hydroxylase enzymes): resisted further hydroxylation from other hydroxylase enzymes | proliferation of human keratinocytes / skin cells (in words) (human keratinocytes): decrease proliferation of human keratinocytes
